Results as given in US20250114327A1, “COMPOSITION COMPRISING TETRACYCLIC COMPOUND” (CHUGAI SEIYAKU KABUSHIKI KAISHA, priority 2010, published 2025).
Structures can show the parent of a compound that is named as a salt.

Key:
[1] = Small scale dissolution test in FaSSIF (Test example 2); details: 37° C., paddle 50 rpm

Structure (SMILES)	Dissolved concentration after 10 min [µg/mL]	Dissolved concentration after 240 min [µg/mL]	solubility of the Compound F6-20 hydrochloride salt crystal ([1]; 5 to 240 min, results in figures, stated in words)	initial solubility of the Compound F6-20 hydrochloride salt crystal ([1]; early phase, stated in words (FIG. 26))	solubility of the Compound F6-20 mesylate salt crystal ([1]; 5 to 240 min, versus Comparative example 3, stated in words)
CCc1cc2c(cc1N1CCC(N3CCOCC3)CC1)C(C)(C)c1[nH]c3cc(C#N)ccc3c1C2=O [9-ethyl-6,6-dimethyl-8-(4-morpholin-4-yl-piperidin-1-yl)-11-oxo-6,11-dihydro-5H-benzo[b]carbazole-3-carbonitrile monohydrochloride salt]			improved by addition of SLS and poly(sodium 4-styrene sulfonate)	improved by addition of polyoxyethylene (105) polyoxypropylene (5) glycol	
CC1(C)c2cc(C3CCN(C4COC4)CC3)ccc2C(=O)c2c1[nH]c1cc(C#N)ccc21 [Comparative example 4, 6,6-Dimethyl-8-(1-oxetan-3-yl-piperidin-4-yl)-11-oxo-6,11-dihydro-5H-benzo[b]carbazole-3-carbonitrile]	8.3 ± 1.5	3.8 ± 2.6			
CCc1cc2c(cc1N1CCC(N3CCOCC3)CC1)C(C)(C)c1[nH]c3cc(C#N)ccc3c1C2=O [Compound F6-20 mesylate salt, 9-Ethyl-6,6-dimethyl-8-(4-morpholin-4-yl-piperidin-1-yl)-11-oxo-6,11-dihydro-5H-benzo[b]carbazole-3-carbonitrile]					improved in accordance with the additive amount of sodium lauryl sulfate

More lines, main results first:

Dissolved concentration after 10 min [µg/mL]	Dissolved concentration after 240 min [µg/mL]	Structure (SMILES)	solubility of the Compound F6-20 hydrochloride salt crystal ([1]; 5 to 240 min, results in figures, stated in words)	initial solubility of the Compound F6-20 hydrochloride salt crystal ([1]; early phase, stated in words (FIG. 26))	solubility of the Compound F6-20 mesylate salt crystal ([1]; 5 to 240 min, versus Comparative example 3, stated in words)
4.4 ± 0.4	4.8 ± 0.3	CC1(C)c2cc(N3CCN(C4COC4)CC3)c(Br)cc2C(=O)c2c1[nH]c1cc(C#N)ccc21 [Comparative example 5, 9-Bromo-6,6-dimethyl-8-(4-oxetan-3-yl-piperazin-1-yl)-11-oxo-6,11-dihydro-5H-benzo[b]carbazole-3-carbonitrile]			
18.2 ± 0.1	3.7 ± 0.5	CC1(C)c2cc(N3CCN(C4CC4)CC3)c(Br)cc2C(=O)c2c1[nH]c1cc(C#N)ccc21 [Comparative example 6, 9-Bromo-8-(4-cyclopropyl-piperazin-1-yl)-6,6-dimethyl-11-oxo-6,11-dihydro-5H-benzo[b]carbazole-3-carbonitrile]			
0.4 ± 0.2	0.4 ± 0.4	CCc1cc2c(cc1N1CCN(C3COC3)CC1)C(C)(C)c1[nH]c3cc(C#N)ccc3c1C2=O [Comparative example 7, 9-Ethyl-6,6-dimethyl-8-(4-oxetan-3-yl-piperazin-1-yl)-11-oxo-6,11-dihydro-5H-benzo[b]carbazole-3-carbonitrile]			
